Results published in ChEMBL document CHEMBL5376003, “Structure-Activity Relationship of FL118 Platform Position 7 Versus Position 9-Derived Compounds and Their Mechanism of Action and Antitumor Activity” (J Med Chem, 2023).
Calls of active or inactive are those of the source. The calls are words filed in the database; no cut-off is given here.

Key:
[1] = system: HCT-116; experiment: Induction of apoptosis in human HCT-116 cells assessed as increase in intracellular ROS level incubated for 48 hrs by DCFH-DA staining based fluorescence microscopy; format: functional, cell-based
[2] = system: HCT-116; experiment: Growth inhibition of human HCT-116 cells incubated for 48 hrs by MTT reagent based ELISA reader analysis; format: functional, cell-based; details: HCT-116, 48 h
[3] = system: HepG2; experiment: Growth inhibition of human HepG2 cells incubated for 48 hrs by MTT reagent based ELISA reader analysis; format: functional, cell-based; details: HepG2, 48 h
[4] = system: MCF7; experiment: Growth inhibition of human MCF7 cells incubated for 48 hrs by MTT reagent based ELISA reader analysis; format: functional, cell-based; details: MCF7, 48 h
[5] = system: A549; experiment: Growth inhibition of human A549 cells incubated for 48 hrs by MTT reagent based ELISA reader analysis; format: functional, cell-based; details: A549, 48 h
[6] = system: HeLa; experiment: Growth inhibition of human HeLa cells incubated for 48 hrs by MTT reagent based ELISA reader analysis; format: functional, cell-based
[7] = system: PDX27454; experiment: Antitumor activity against human PDX27454 cells xenografted in SCID mouse model assessed as reduction in tumor volume at 2 mg/kg,po administrated once per week for 3 weeks; format: functional, organism-based
[8] = system: PDX27454; experiment: Antitumor activity against human PDX27454 cells xenografted in SCID mouse model assessed as reduction in tumor volume at 8 mg/kg,po administrated once per week for 3 weeks; format: functional, organism-based
[9] = system: PDX14244; experiment: Antitumor activity against human PDX14244 cells xenografted in SCID mouse model assessed as reduction in tumor volume at 2 mg/kg,po administrated once per week for 3 weeks; format: functional, organism-based
[10] = system: PDX14244; experiment: Antitumor activity against human PDX14244 cells xenografted in SCID mouse model assessed as reduction in tumor volume at 8 mg/kg,po administrated once per week for 3 weeks; format: functional, organism-based
[11] = system: HCT-116; experiment: Induction of apoptosis in human HCT-116 cells assessed as increase in intracellular ROS level at 10 to 1000 nM incubated for 12 hrs by DCFH-DA staining based fluorescence microscopy; format: functional, cell-based; details: dose 10-1000 nM
[12] = system: HCT-116; experiment: Induction of apoptosis in human HCT-116 cells assessed as increase in intracellular ROS level at 10 to 1000 nM incubated for 4 to 8 hrs by DCFH-DA staining based fluorescence microscopy; format: functional, cell-based; details: dose 10-1000 nM, time 4-8 hrs
[13] = system: HCT-116; experiment: Inhibition of cell migration in human HCT-116 cells assessed as intercellular distance at 5 nM by inverted phase-contrast microscopic analysis (reference value: 2.5 +/- 0.7 millimeter); format: functional
[14] = system: HCT-116; experiment: Inhibition of cell migration in human HCT-116 cells assessed as intercellular distance at 5 nM incubated for 24 hrs by inverted phase-contrast microscopic analysis (reference value: 1 +/- 0.2 millimeter); format: functional
[15] = system: HCT-116; experiment: Inhibition of cell migration in human HCT-116 cells assessed as intercellular distance at 5 nM incubated for 48 hrs by inverted phase-contrast microscopic analysis; format: functional
[16] = system: HCT-116; experiment: Inhibition of cell migration in human HCT-116 cells assessed as scratch repair rate at 5 nM incubated for 48 hrs by inverted phase-contrast microscopic analysis; format: functional; design: scale not given: the % may be the effect or the level left
[17] = target: T1, DNA topoisomerase 1 (Homo sapiens) (UniProt P11387); experiment: Inhibition of topoisomerase 1 (unknown origin) assessed as relaxation of supercoiled plasmid pBR322 DNA at 25 to 100 uM incubated for 30 mins by ethidium bromide staining based agarose gel electrophoresis; details: dose 25-100 µM
T1 sequence (whole entry): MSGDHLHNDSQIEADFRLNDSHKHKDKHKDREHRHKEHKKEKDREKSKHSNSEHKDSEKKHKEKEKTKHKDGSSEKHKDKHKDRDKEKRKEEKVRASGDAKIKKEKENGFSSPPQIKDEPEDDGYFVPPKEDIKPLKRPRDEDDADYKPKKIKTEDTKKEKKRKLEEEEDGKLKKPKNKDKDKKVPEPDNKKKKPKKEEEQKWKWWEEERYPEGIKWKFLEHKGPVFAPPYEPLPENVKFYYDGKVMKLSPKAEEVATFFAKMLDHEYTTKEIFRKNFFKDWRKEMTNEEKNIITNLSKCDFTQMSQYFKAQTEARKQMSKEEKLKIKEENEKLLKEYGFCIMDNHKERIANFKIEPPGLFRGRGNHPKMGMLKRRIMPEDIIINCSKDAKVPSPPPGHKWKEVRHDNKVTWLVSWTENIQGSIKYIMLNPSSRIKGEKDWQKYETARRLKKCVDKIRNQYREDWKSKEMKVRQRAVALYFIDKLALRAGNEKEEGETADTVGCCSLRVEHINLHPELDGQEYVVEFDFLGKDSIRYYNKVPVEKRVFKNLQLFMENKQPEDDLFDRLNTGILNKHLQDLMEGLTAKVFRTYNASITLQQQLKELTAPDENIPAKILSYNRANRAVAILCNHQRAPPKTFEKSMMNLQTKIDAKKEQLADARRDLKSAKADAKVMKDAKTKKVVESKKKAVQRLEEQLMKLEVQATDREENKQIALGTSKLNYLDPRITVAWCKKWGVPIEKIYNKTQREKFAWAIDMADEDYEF

[18] = system: HCT-116; experiment: Induction of cell cycle arrest in human HCT-116 cells assessed as accumulation of cells at S phase at 2.5 to 10 nM incubated for 48 hrs by Annexin V-FITC/PI staining based flow cytometry assay; format: functional; details: dose 2.5-10 nM
[19] = system: HCT-116; experiment: Induction of cell cycle arrest in human HCT-116 cells assessed as accumulation of cells at G2/M phase at 2.5 to 10 nM incubated for 48 hrs by Annexin V-FITC/PI staining based flow cytometry assay; format: functional; details: dose 2.5-10 nM
[20] = system: HCT-116; experiment: Induction of apoptosis in human HCT-116 cells at 2.5 to 10 nM incubated for 48 hrs by Annexin V-FITC/PI staining based flow cytometry assay; format: functional, cell-based; details: dose 2.5-10 nM
[21] = system: HCT-116; experiment: Induction of apoptosis in human HCT-116 cells assessed as downregulation of Survivin protein expression incubated for 48 hrs by Western blotting analysis; format: functional, cell-based
[22] = system: HCT-116; experiment: Induction of apoptosis in human HCT-116 cells assessed as downregulation of XIAP protein expression incubated for 48 hrs by Western blotting analysis; format: functional, cell-based
[23] = system: HCT-116; experiment: Induction of apoptosis in human HCT-116 cells assessed as downregulation of MCL-1 protein expression incubated for 48 hrs by Western blotting analysis; format: functional, cell-based

SMILES: CC[C@@]1(O)C(=O)OCc2c1cc1n(c2=O)Cc2cc3c(-c4ccc([Si](C)(C)C)cc4)c4c(cc3nc2-1)OCO4
- Activity [1]: Dose-Dependent Effect
- IC50 [2]: 253 nM
- IC50 [3]: 176 nM
- IC50 [4]: 104 nM
- IC50 [5]: 85.8 nM
- IC50 [6]: 160 nM
- Activity [7]: Active
- Activity [8]: Active
- Activity [9]: Active
- Activity [10]: Active

SMILES: CC[C@@]1(O)C(=O)OCc2c1cc1n(c2=O)Cc2cc3c(-c4ccc(OC(C)C)cc4)c4c(cc3nc2-1)OCO4
- Activity [1]: Dose-Dependent Effect
- IC50 [2]: 948 nM
- IC50 [3]: 910 nM
- IC50 [4]: 600 nM
- IC50 [5]: 142 nM
- IC50 [6]: 152 nM
- Activity [7]: Active
- Activity [8]: Active
- Activity [9]: Active
- Activity [10]: Active

SMILES: CC[C@@]1(O)C(=O)OCc2c1cc1n(c2=O)Cc2cc3c(-c4cccc(C)c4)c4c(cc3nc2-1)OCO4
- IC50 [2]: 478 nM
- IC50 [3]: 200 nM
- IC50 [4]: 132 nM
- IC50 [5]: > 1000 nM
- IC50 [6]: 32.6 nM
- Activity [7]: Active
- Activity [8]: Active
- Activity [9]: Active
- Activity [10]: Active

SMILES: CC[C@@]1(O)C(=O)OCc2c1cc1n(c2=O)Cc2c-1nc1cc3c(cc1c2-c1ccc(C(F)(F)F)cc1)OCO3
- Activity [1]: Dose-Dependent Effect
- Activity [11]: Active
- Activity [12]: Active
- IC50 [2]: 40.8 nM
- IC50 [3]: 86.6 nM
- IC50 [4]: 47.1 nM
- IC50 [5]: 78.9 nM
- IC50 [6]: 49.5 nM
- Activity [13]: 2.6 mm
- Activity [14]: 1.5 mm
- Activity [15]: 0.8 mm
- Activity [16]: 69.2%
- Activity [7]: Active
- Activity [8]: Active
- Activity [9]: Active
- Activity [10]: Active
- Topoisomerase 1 inhibition [17]: Active
- Activity [18]: Active
- Activity [19]: Active
- Activity [20]: Active
- Activity [21]: Active
- Activity [22]: Active
- Activity [23]: Active
